# In patent publication US20170107207A1, “AMINOPYRAZOLONE DERIVATIVE” (DAIICHI SANKYO COMPANY, LIMITED, priority 2014, published 2017):
# Legend:
# [1] = tested on: human lymphoma cell line RAMOS cells; assay: Cell growth inhibition test using RAMOS cell, MTT assay; type: cell-based; settings: 50% growth inhibition concentration
# Method: A cell growth inhibition test was carried out by treating human lymphoma cell line RAMOS cells with a test compound for a given period and then counting the number of viable cells by MTT assay or CellTiter-Glo Luminescent Cell Viability Assay (manufactured by Promega Corp.; hereinafter, referred to as ATP assay).
# RAMOS cells were suspended in a medium (RPMI1640 medium containing 10% fetal bovine serum). The cell suspension was inoculated at 5000 cells/150 μL/well to a 96-well multiwell plate. The test compound was dissolved in DMSO, and this solution was diluted with medium to prepare a sample solution (DMSO concentration: 1% or lower). Subsequently, test compound-free medium or the sample solution was added thereto at 50 μL/well. The MTT assay was carried out at the day of addition of the sample solution or the DMSO dilution to the cells and after culture at 37° C. for 3 days under 5% CO2 of the cells supplemented with the sample solution or the medium. The MTT assay was carried out as follows.
# A 5 mg/mL solution of MTT (3-(4,5-dimethylthiazol-2-yl)-2,5-diphenyltetrazolium bromide, Sigma-Aldrich Corp., M-2128) was prepared using a phosphate buffered solution (Dulbecco's phosphate-buffered saline). This MTT solution was added at 20 μL/well to the plate. Then, the plate was incubated at 37° C. for 4 hours under 5% CO2. The plate was centrifuged at 1200 rpm for 5 minutes, and then, the culture supernatant was removed by suction using a dispenser. DMSO was added thereto at 150 μL/well to dissolve formed formazan. […] from each well was rendered uniform by the stirring of the plate using a plate mixer. The absorbance of each well was measured using a plate reader under conditions involving OD of 540 nm and reference of 660 nm.
# The number of viable cells and absorbance (hereinafter, referred to as an OD value) have been confirmed to correlate with each other. Therefore, the rate of cell growth was calculated according to the following expression: Rate of cell growth (T/C %) of a test compound-supplemented well=100×[(B−C)/(A−C)] wherein A represents the OD value (final culture date) of a test compound-free well; B represents the OD value (final culture date) of a test compound-containing well; and C represents the OD value (day of cell inoculation) of a well at the start of contact of the cells with the test compound.
# T/C % at each concentration of the test compound was determined. The concentration at which the test compound offered 50% growth rate was calculated as a 50% growth inhibition concentration (GI50) value from the growth rates at two points interpolating 50% and the concentrations, and is shown in Table 56.
# TIP48/TIP49 complex = biological target: T1, TIP48/TIP49 complex (Homo sapiens, UniProt Q9Y230+Q9Y265); assay: ATPase assay of TIP48/TIP49 complex (ADP-Glo); type: biochemical; settings: concentration at which the ATPase activity was inhibited by 50%
# T1 construct: made in house; host or cells: E. coli
# Method in brief: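 Compound was tested over 10 four-fold concentrations, 200 μM down to 0.0007 μM at 2% DMSO, against E. coli-derived human rTIP48/rTIP49 for 1.5 h at room temperature, pH 7.5 with ATP. ATP hydrolysis was read as ADP-Glo luminescence, normalised to complex-only and no-complex wells, then fitted to dose-response curves.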
# T1 sequence (Q9Y230 whole entry): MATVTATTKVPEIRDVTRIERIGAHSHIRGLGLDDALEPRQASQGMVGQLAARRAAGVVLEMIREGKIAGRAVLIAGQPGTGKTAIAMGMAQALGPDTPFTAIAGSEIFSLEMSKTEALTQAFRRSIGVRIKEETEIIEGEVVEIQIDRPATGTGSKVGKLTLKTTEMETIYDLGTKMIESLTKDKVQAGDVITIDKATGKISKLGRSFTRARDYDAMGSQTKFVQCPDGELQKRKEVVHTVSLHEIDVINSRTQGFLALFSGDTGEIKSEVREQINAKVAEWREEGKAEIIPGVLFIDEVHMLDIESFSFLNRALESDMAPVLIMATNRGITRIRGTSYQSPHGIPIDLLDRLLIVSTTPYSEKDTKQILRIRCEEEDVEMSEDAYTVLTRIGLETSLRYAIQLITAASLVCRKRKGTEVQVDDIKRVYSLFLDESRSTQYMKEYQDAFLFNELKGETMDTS
# T1 sequence (Q9Y265 whole entry): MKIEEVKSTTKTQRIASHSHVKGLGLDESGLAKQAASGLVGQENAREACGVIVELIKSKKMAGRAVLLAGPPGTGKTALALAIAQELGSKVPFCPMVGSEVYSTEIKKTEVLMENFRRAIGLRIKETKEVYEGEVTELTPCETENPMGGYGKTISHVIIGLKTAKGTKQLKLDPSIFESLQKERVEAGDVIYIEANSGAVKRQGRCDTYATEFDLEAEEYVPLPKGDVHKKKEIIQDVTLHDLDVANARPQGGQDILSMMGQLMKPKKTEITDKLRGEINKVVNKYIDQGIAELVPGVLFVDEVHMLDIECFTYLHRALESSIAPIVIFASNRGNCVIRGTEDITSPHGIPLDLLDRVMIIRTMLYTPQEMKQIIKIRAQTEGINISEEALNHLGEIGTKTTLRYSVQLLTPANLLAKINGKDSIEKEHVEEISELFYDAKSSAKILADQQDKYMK
GI50 [1],IC50 (TIP48/TIP49 complex),Compound
1300 nM,250 nM,"COc1ccc(Cl)cc1NC(=O)CC(C)(CC(=O)Nc1c(C)n(C)n(-c2ccccc2)c1=O)OC (stereo not shown) [Example 104, N-(5-Chloro-2-methoxyphenyl)-N′-(1,5-dimethyl-3-oxo-2-phenyl-2,3-dihydro-1H-pyrazol-4-yl)-3-methoxy-3-methylpentanediamide]"
74 nM,26 nM,"Cc1c(NC(=O)CC(C)(C)CNC(=O)c2cc(Cl)cc3c2OC(C)C3)c(=O)n(-c2ccccc2)n1C (stereo not shown) [Example 105, 5-Chloro-N-{4-[(1,5-dimethyl-3-oxo-2-phenyl-2,3-dihydro-1H-pyrazol-4-yl)amino]-2,2-dimethyl-4-oxobutyl}-2-methyl-2,3-dihydrobenzofuran-7-carboxamide]"
100 nM,35 nM,"Cc1c(NC(=O)CC(C)(C)CNC(=O)c2cc(Cl)cc3c2OCCC3)c(=O)n(-c2ccccc2)n1C [Example 106, 6-Chloro-N-{4-[(1,5-dimethyl-3-oxo-2-phenyl-2,3-dihydro-1H-pyrazol-4-yl)amino]-2,2-dimethyl-4-oxobutyl}chromane-8-carboxamide]"
190 nM,66 nM,"Cc1ccc2cc(Cl)cc(C(=O)NCC(C)(C)CC(=O)Nc3c(C)n(C)n(-c4ccccc4)c3=O)c2n1 [Example 107, 6-Chloro-N-{4-[(1,5-dimethyl-3-oxo-2-phenyl-2,3-dihydro-1H-pyrazol-4-yl)amino]-2,2-dimethyl-4-oxobutyl}-2-methylquinoline-8-carboxamide]"
740 nM,190 nM,"Cc1c(NC(=O)CC(C)(C)CNC(=O)c2cc(Cl)ccc2OC2COC2)c(=O)n(-c2ccccc2)n1C [Example 108, 5-Chloro-N-{4-[(1,5-dimethyl-3-oxo-2-phenyl-2,3-dihydro-1H-pyrazol-4-yl)amino]-2,2-dimethyl-4-oxobutyl}-2-(oxetan-3-yloxy)benzamide]"
200 nM,200 nM,Cc1c(NC(=O)CC(C)(C)CNC(=O)c2cc(Cl)cc3c2OC(C)CN3)c(=O)n(-c2ccccc2)n1C (stereo not shown) [Example 109]
120 nM,33 nM,"Cc1c(NC(=O)CC(C)(C)CNC(=O)c2cc(Cl)cc3c2OC(C)CN3C)c(=O)n(-c2ccccc2)n1C (stereo not shown) [Example 110, 6-Chloro-N-{4-[(1,5-dimethyl-3-oxo-2-phenyl-2,3-dihydro-1H-pyrazol-4-yl)amino]-2,2-dimethyl-4-oxobutyl}-2,4-dimethyl-2,3-dihydro-1,4-benzoxazine-8-carboxamide]"
90 nM,44 nM,"CCc1nc2c(C(=O)NCC(C)(C)CC(=O)Nc3c(C)n(C)n(-c4ccccc4)c3=O)cc(Cl)cc2o1 [Example 111, 6-Chloro-N-{4-[(1,5-dimethyl-3-oxo-2-phenyl-2,3-dihydro-1H-pyrazol-4-yl)amino]-2,2-dimethyl-4-oxobutyl}-2-ethyl-1,3-benzoxazole-4-carboxamide]"
680 nM,150 nM,COc1ccc(Cl)cc1C(=O)NCC(C)(C)C(O)C(=O)Nc1c(C)n(C)n(-c2ccccc2)c1=O (stereo not shown) [Example 112]
110 nM,41 nM,"CCOc1ncc(Cl)cc1C(=O)NCC(C)(C)CC(=O)Nc1c(COC)n(C)n(-c2ccccc2)c1=O [Example 117, 5-Chloro-2-ethoxy-N-(4-{[5-(methoxymethyl)-1-methyl-3-oxo-2-phenyl-2,3-dihydro-1H-pyrazol-4-yl]amino}-2,2-dimethyl-4-oxobutyl)pyridine-3-carboxamide]"
270 nM,95 nM,"CCOc1cc(F)c(Cl)cc1NC(=O)CC(C)(C)CC(=O)Nc1c(COC)n(C)n(-c2ccccc2)c1=O [Example 119, N-(5-Chloro-2-ethoxy-4-fluorophenyl)-N′-[5-(methoxymethyl)-1-methyl-3-oxo-2-phenyl-2,3-dihydro-1H-pyrazol-4-yl]-3,3-dimethylpentanediamide]"
51 nM,24 nM,"COCc1c(NC(=O)CC(C)(C)CNC(=O)c2cc(Cl)cc3cc(C)oc23)c(=O)n(-c2ccccc2)n1C [Example 120, 5-Chloro-N-(4-{[5-(methoxymethyl)-1-methyl-3-oxo-2-phenyl-2,3-dihydro-1H-pyrazol-4-yl]amino}-2,2-dimethyl-4-oxobutyl)-2-methylbenzofuran-7-carboxamide]"
140 nM,61 nM,"COCc1c(NC(=O)CC(C)(C)CNC(=O)c2cc(Cl)cc3c2OC(C)(C)C3)c(=O)n(-c2ccccc2)n1C [Example 121, 5-Chloro-N-(4-{[5-(methoxymethyl)-1-methyl-3-oxo-2-phenyl-2,3-dihydro-1H-pyrazol-4-yl]amino}-2,2-dimethyl-4-oxobutyl)-2,2-dimethyl-3H-benzofuran-7-carboxamide]"
590 nM,190 nM,"COc1ccc(Cl)cc1NC(=O)CC(C)(C)CC(=O)Nc1c(C(C)C)n(C)n(-c2ccccc2)c1=O [Example 128, N-(5-Chloro-2-methoxyphenyl)-N′-(5-isopropyl-1-methyl-3-oxo-2-phenyl-2,3-dihydro-1H-pyrazol-4-yl)-3,3-dimethylpentanediamide]"
800 nM,220 nM,COc1ccc(Cl)cc1C(=O)NCC(C)(C)CC(=O)Nc1c(COC2CN(C)C2)n(C)n(-c2ccccc2)c1=O [Example 134]
120 nM,100 nM,"CCOc1ccc(Cl)cc1C(=O)NCC(C)(C)CC(=O)Nc1c(COc2cccnc2)n(C)n(-c2ccccc2)c1=O [Example 135, 5-Chloro-N-(2,2-dimethyl-4-{[1-methyl-3-oxo-2-phenyl-5-(3-pyridyloxymethyl)pyrazol-4-yl]amino}-4-oxobutyl)-2-ethoxybenzamide]"
1700 nM,310 nM,"COc1ccc(Cl)cc1NC(=O)CC(C)(C)CC(=O)Nc1cn(C)n(-c2ccccc2)c1=O [Example 136, N-(5-Chloro-2-methoxyphenyl)-3,3-dimethyl-N′-(1-methyl-3-oxo-2-phenyl-2,3-dihydro-1H-pyrazol-4-yl)pentanediamide]"
48 nM,38 nM,"CCOc1ccc(Cl)cc1C(=O)NCC(C)(C)CC(=O)Nc1c(C)n(CC)n(-c2ccccc2)c1=O [Example 137, 5-Chloro-2-ethoxy-N-{4-[(1-ethyl-5-methyl-3-oxo-2-phenyl-2,3-dihydro-1H-pyrazol-4-yl)amino]-2,2-dimethyl-4-oxobutyl}benzamide]"
330 nM,180 nM,"CCCn1c(C)c(NC(=O)CC(C)(C)CC(=O)Nc2cc(Cl)c(F)cc2OC)c(=O)n1-c1ccccc1 [Example 138, N-(5-Chloro-4-fluoro-2-methoxyphenyl)-3,3-dimethyl-N′-(3-methyl-5-oxo-1-phenyl-2-propylpyrazol-4-yl)pentanediamide]"
65 nM,25 nM,"Cc1c(NC(=O)CC(C)(C)CNC(=O)c2cc(Cl)cc3c2OC(C)(C)C3)c(=O)n(-c2ccccc2)n1CCO [Example 139, 5-Chloro-N-(4-{[1-(2-hydroxyethyl)-5-methyl-3-oxo-2-phenyl-2,3-dihydro-1H-pyrazol-4-yl]amino}-2,2-dimethyl-4-oxobutyl)-2,2-dimethyl-3H-benzofuran-7-carboxamide]"
240 nM,250 nM,"CCOc1ncc(Cl)cc1C(=O)NCC(C)(C)CC(=O)Nc1c(C)n(CCN2CCC2)n(-c2ccccc2)c1=O [Example 140, N-[4-({1-[2-(Azetidin-1-yl)ethyl]-5-methyl-3-oxo-2-phenyl-2,3-dihydro-1H-pyrazol-4-yl}amino)-2,2-dimethyl-4-oxobutyl]-5-chloro-2-ethoxypyridine-3-carboxamide]"
230 nM,160 nM,"CCOc1ncc(Cl)cc1C(=O)NCC(C)(C)CC(=O)Nc1c(C)n(CCN(C)C)n(-c2ccccc2)c1=O [Example 141, 5-Chloro-N-[4-({1-[2-(dimethylamino)ethyl]-5-methyl-3-oxo-2-phenyl-2,3-dihydro-1H-pyrazol-4-yl}amino)-2,2-dimethyl-4-oxobutyl]-2-ethoxypyridine-3-carboxamide]"
180 nM,61 nM,"CCOc1ncc(Cl)cc1C(=O)NCC(C)(C)CC(=O)Nc1c(C)n(CCN2CCOCC2)n(-c2ccccc2)c1=O [Example 142, 5-Chloro-N-(2,2-dimethyl-4-{[5-methyl-1-(2-morpholinoethyl)-3-oxo-2-phenyl-2,3-dihydro-1H-pyrazol-4-yl]amino}-4-oxobutyl)-2-ethoxypyridine-3-carboxamide]"
